Laboratory results: patent publication US8987193B2, “Nisin derivatives and the use thereof” (University College Cork—National University of Ireland, Cork, priority 2008, dated 2015)
Ends that are not written are not given here.

Tests used:
Assay in all cases: Deferred antagonism assay
Type in all cases: cell-based
[1] = system: Staph. aureus ST528 (MRSA); settings: producing strain, diameter of zone minus diameter of bacterial growth (5 mm), average of duplicates
Method in brief: (§1)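 Producer strains replicated on GM17 agar, grown overnight, then overlaid with soft agar (0.75% w/v) seeded with indicator strain. Zone size = clearing diameter minus 5 mm growth diameter, relative to NZ9800 pCI372nisA control; mean of duplicates.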

[2] = system: Strep. agalactiae ATCC13813; settings: producing strain, diameter of zone minus 5 mm, average of duplicates
Staph. aureus DPC5245 = settings: producing strain; diameter of zone minus 5 mm; average of duplicates; St. aureus DPC5245
Method in brief: as §1

Listeria innocua CLIP = system: Listeria innocua CLIP; design: key: −, no inhibition; (+), clear zone directly above the colony; +, 1-5 mm zone; ++, 6-10 mm zone; +++, <10 mm zone; settings: nisin strain
Procedure: (§2) Deferred antagonism assays were performed by replicating strains on GM17 or GM17 x-gal agar plates and allowing them to grow overnight before overlaying with either GM17/BHI/TS/MH agar (0.75% w/v agar) seeded with the appropriate indicator strain. Zone size was calculated as the diameter of the zone of clearing minus the diameter of bacterial growth (5 mm) For higher throughput screening of N20PXX, XM21VX, XXK22T and XXX banks deferred antagonism assays were performed by replicating strains using a 96 pin replicator (Boekel) or spotting 5 μl of a fresh overnight culture on GM17 agar plates and allowing them to grow overnight. […] Additional sets of indicators were employed to further assess/reassess the bioactivity of a number of strains. […] For well-diffusion assays molten agar was cooled to 48° C. and seeded with the appropriate indicator strain. The inoculated medium was rapidly transferred into sterile Petri plates in 50 ml volumes, allowed to solidify and dried. Wells (4.6 mm in diameter) were then made in the seeded plates. Purified nisin and mutant nisins were resuspended in 0.005% acetic acid, serially diluted, 50 μl volumes were dispensed into the aforementioned wells and the plates incubated at 37° C. overnight. Bioactivity was expressed as arbitrary units/ml (AU/ml) and calculated as the reciprocal of the highest dilution that gave a definite zone multiplied by the conversion factor (i.e. 20 when 50 μl was used) (Ryan et al., 1996).

[3] = system: Listeria monocytogenes 33083; design: key: −, no inhibition; (+), clear zone directly above the colony; +, 1-5 mm zone; ++, 6-10 mm zone; +++, <10 mm zone; settings: nisin strain; L. monocytogenes 33083
Procedure: as §2

[4] = system: Listeria monocytogenes 33007; settings: nisin strain; L. monocytogenes 33007
Procedure: as §2

[5] = system: Listeria monocytogenes LO28; settings: nisin strain; L. monocytogenes LO28
Procedure: as §2

[6] = system: Listeria monocytogenes SLCC 4949; settings: nisin strain; L. monocytogenes SLCC 4949
Procedure: as §2

[7] = system: Listeria monocytogenes CD83; settings: nisin strain; L. monocytogenes CD83
Procedure: as §2

[8] = system: Listeria monocytogenes NRRLB 33038; settings: nisin strain; L. monocytogenes NRRLB 33038
Procedure: as §2

[9] = system: Listeria monocytogenes 33090; settings: nisin strain; L. monocytogenes 33090
Procedure: as §2

[10] = system: Listeria monocytogenes 33077; settings: nisin strain; L. monocytogenes 33077
Procedure: as §2

[11] = system: Listeria monocytogenes 33013; settings: nisin strain; L. monocytogenes 33013
Procedure: as §2

[12] = system: Listeria monocytogenes F2365; settings: nisin strain; L. monocytogenes F2365
Procedure: as §2

[13] = system: Listeria monocytogenes 33176; settings: nisin strain; L. monocytogenes 33176
Procedure: as §2

[14] = system: Listeria monocytogenes 33116; settings: nisin strain; L. monocytogenes 33116
Procedure: as §2

[15] = system: Listeria monocytogenes CD1038; settings: nisin strain; L. monocytogenes CD1038
Procedure: as §2

[16] = system: Listeria monocytogenes 33423; settings: nisin strain; L. monocytogenes 33423
Procedure: as §2

[17] = system: Listeria monocytogenes 33225; settings: nisin strain; L. monocytogenes 33225
Procedure: as §2

Listeria innocua FH2117 = settings: nisin strain
Procedure: as §2

[18] = system: Listeria monocytogenes 33411; settings: nisin strain; L. monocytogenes 33411
Procedure: as §2

[19] = system: Listeria monocytogenes SLCC 6793; settings: nisin strain; L. monocytogenes SLCC 6793
Procedure: as §2

[20] = system: Listeria monocytogenes 33186; settings: nisin strain; L. monocytogenes 33186
Procedure: as §2

[21] = system: Listeria monocytogenes 33037; settings: nisin strain; L. monocytogenes 33037
Procedure: as §2

| Substance | zone size relative to that of the NZ9800 pCI372nisA control [1] | zone size relative to that of the NZ9800 pCI372nisA control [2] | zone size relative to that of the NZ9800 pCI372nisA control (Staph. aureus DPC5245) | Activity score (zone) (Listeria innocua CLIP) | Activity score (zone) [3] | Activity score (zone) [4] | Activity score (zone) [5] | Activity score (zone) [6] | Activity score (zone) [7] | Activity score (zone) [8] | Activity score (zone) [9] | Activity score (zone) [10] | Activity score (zone) [11] | Activity score (zone) [12] | Activity score (zone) [13] | Activity score (zone) [14] | Activity score (zone) [15] | Activity score (zone) [16] | Activity score (zone) [17] | Activity score (zone) (Listeria innocua FH2117) | further results |
| --- | --- | --- | --- | --- | --- | --- | --- | --- | --- | --- | --- | --- | --- | --- | --- | --- | --- | --- | --- | --- | --- |
| NisinA K22A (ITSISLCTPGCKTGALMGCNMATATCHCSIHVSK; not fully specified; also: lantibiotic: lanthionine rings and dehydro residues not placed; UniProt P13068 24-57, looked up, variant K22A) [nisin A derivative, hinge substitution K22A] | 126% | 137% | 117% | + (+, 1-5 mm zone) | + (+, 1-5 mm zone) | + (+, 1-5 mm zone) | + (+, 1-5 mm zone) | + (+, 1-5 mm zone) | + (+, 1-5 mm zone) | + (+, 1-5 mm zone) | + (+, 1-5 mm zone) | + (+, 1-5 mm zone) | + (+, 1-5 mm zone) | + (+, 1-5 mm zone) | + (+, 1-5 mm zone) | + (+, 1-5 mm zone) | + (+, 1-5 mm zone) | + (+, 1-5 mm zone) | + (+, 1-5 mm zone) | + (+, 1-5 mm zone) | Activity score (zone) [18]: + (+, 1-5 mm zone); Activity score (zone) [19]: ++ (++, 6-10 mm zone); Activity score (zone) [20]: + (+, 1-5 mm zone); Activity score (zone) [21]: + (+, 1-5 mm zone) |
| NisinA M21G (ITSISLCTPGCKTGALMGCNGKTATCHCSIHVSK; not fully specified; also: lantibiotic: lanthionine rings and dehydro residues not placed; UniProt P13068 24-57, looked up, variant M21G) [nisin A derivative, hinge substitution M21G] | 125% | 115% | 123% | + (+, 1-5 mm zone) | − | + (+, 1-5 mm zone) | + (+, 1-5 mm zone) | + (+, 1-5 mm zone) | + (+, 1-5 mm zone) | + (+, 1-5 mm zone) | + (+, 1-5 mm zone) | + (+, 1-5 mm zone) | + (+, 1-5 mm zone) | + (+, 1-5 mm zone) | + (+, 1-5 mm zone) | + (+, 1-5 mm zone) | + (+, 1-5 mm zone) | + (+, 1-5 mm zone) | + (+, 1-5 mm zone) | + (+, 1-5 mm zone) | Activity score (zone) [18]: + (+, 1-5 mm zone); Activity score (zone) [19]: ++ (++, 6-10 mm zone); Activity score (zone) [20]: + (+, 1-5 mm zone); Activity score (zone) [21]: + (+, 1-5 mm zone) |
